Source: US9518061B2, “Substituted pyrazolylpyrazole derivative and use of same as herbicide” (KYOYU AGRI CO., LTD., priority 2013, dated 2016)

Columns and labels:
Assay type in all cases: in vivo
Echinochloa crus-galli = assay: Paddy herbicidal activity test; details: irrigated paddy pot, treated at 3.5 leaf stage of Echinochloa crus-galli, 30 days
Protocol: (§1) 1. Paddy Herbicidal Activity Test
(§2) Rice paddy soil was filled into a 1/10000 are pot followed by the addition of suitable amounts of water and chemical fertilizer, kneading, seeding with Echinochloa crus-galli, Monochoria vaginalis and Scirpus juncoides and maintaining in an irrigated state at a water depth of 3 cm.
(§3) Wettable powder of Target Compound (I) shown in Table 1 prepared in compliance with the preparation examples were diluted with a suitable amount of water, rice plants in the 2.0 leaf stage were transplanted during 3.5 leaf stage of Echinochloa crus-galli, and treated by dropping in chemical in the prescribed amount per are using a pipette.
(§4) After treating for 30 days in a glass greenhouse at an average atmospheric temperature of 30° C., the herbicidal efficacy thereof was investigated.
(§5) Evaluation of herbicidal efficacy was carried out by comparing growth inhibition rate (%) with an untreated group, while evaluation of phytotoxicity was carried out by comparing growth inhibition rate (%) with the state of a complete eradication group, and were evaluated at 11 levels indicated below.

Monochoria vaginalis = assay: Paddy herbicidal activity test; details: irrigated paddy pot, 30 days
Protocol: as §1, §2, §3, §4, §5

Scirpus juncoides = assay: Paddy herbicidal activity test; details: irrigated paddy pot, 30 days
Protocol: as §1, §2, §3, §4, §5

Rice plants = assay: Paddy herbicidal activity test, phytotoxicity to transplanted rice; details: rice transplanted in 2.0 leaf stage, 30 days
Protocol: as §1, §2, §3, §4, §5

Amaranthus retroflexus [1] = assay: Farming soil treatment test; details: soil surface spray prior to weed growth, 30 days
Protocol: (§6) 2. Farming Soil Treatment Test
(§7) Field soil was filled into a 1/6000 are pot followed by seeding with Digitaria ciliaris, Chenopodium album and Amaranthus retroflexus and covering with soil.
(§8) Wettable powder of compounds of formula (D shown in Table 1 prepared in compliance with the preparation examples were diluted with water to the prescribed amount of chemical and uniformly sprayed onto each soil surface layer using 10 liters of sprayed water per are prior to weed growth following seeding.
as §4
(§9) Evaluation of herbicidal efficacy was carried out in the same manner as the above-mentioned Test Example 1.

Chenopodium album [2] = assay: Farming soil treatment test; details: soil surface spray prior to weed growth, 30 days
Protocol: as §6, §7, §8, §4, §9

Digitaria ciliaris [3] = assay: Farming soil treatment test; details: soil surface spray prior to weed growth, 30 days
Protocol: as §6, §7, §8, §4, §9

Amaranthus retroflexus [4] = assay: Weed foliar treatment test; details: foliar spray, 3 weeks
Protocol: (§10) 3. Weed Foliar Treatment Test
(§11) Soil was filled into a 1/6000 are pot followed by seeding with Digitaria ciliaris, Chenopodium album and Amaranthus retroflexus, covering with soil, and cultivating in a glass greenhouse at an average atmospheric temperature of 25° C.
(§12) Wettable powder of Target Compound (I) shown in Table 1 prepared in compliance with the preparation examples were diluted with water to the prescribed amount of chemical and uniformly sprayed onto the weeds using 15 liters of sprayed water per are when Digitaria ciliaris had grown to the 1.0 to 2.0 leaf stage.
(§13) After treating for 3 weeks in a glass greenhouse at an average atmospheric temperature of 25° C., the herbicidal efficacy thereof was investigated.
as §9

Chenopodium album [5] = assay: Weed foliar treatment test; details: foliar spray, 3 weeks
Protocol: as §10, §11, §12, §13, §9

Digitaria ciliaris [6] = assay: Weed foliar treatment test; details: foliar spray at 1.0 to 2.0 leaf stage of Digitaria ciliaris, 3 weeks
Protocol: as §10, §11, §12, §13, §9

SMILES | herbicidal efficacy (growth inhibition rate level) Echinochloa crus-galli (Echinochloa crus-galli; 1g a.i./10a) | herbicidal efficacy (growth inhibition rate level) Echinochloa crus-galli (Echinochloa crus-galli; 5g a.i./10a) | herbicidal efficacy (growth inhibition rate level) Monochoria vaginalis (Monochoria vaginalis; 1g a.i./10a) | herbicidal efficacy (growth inhibition rate level) Monochoria vaginalis (Monochoria vaginalis; 5g a.i./10a) | herbicidal efficacy (growth inhibition rate level) Scirpus juncoides (Scirpus juncoides; 1g a.i./10a) | herbicidal efficacy (growth inhibition rate level) Scirpus juncoides (Scirpus juncoides; 5g a.i./10a) | phytotoxicity (growth inhibition rate level) Rice plants (Rice plants; 1g a.i./10a) | phytotoxicity (growth inhibition rate level) Rice plants (Rice plants; 5g a.i./10a) | herbicidal efficacy (growth inhibition rate level) Amaranthus retroflexus (Amaranthus retroflexus [1]; 5g a.i./10a) | herbicidal efficacy (growth inhibition rate level) Amaranthus retroflexus (Amaranthus retroflexus [1]; 10g a.i./10a) | herbicidal efficacy (growth inhibition rate level) Chenopodium album (Chenopodium album [2]; 5g a.i./10a) | herbicidal efficacy (growth inhibition rate level) Chenopodium album (Chenopodium album [2]; 10g a.i./10a) | herbicidal efficacy (growth inhibition rate level) Digitaria ciliaris (Digitaria ciliaris [3]; 5g a.i./10a) | herbicidal efficacy (growth inhibition rate level) Digitaria ciliaris (Digitaria ciliaris [3]; 10g a.i./10a) | herbicidal efficacy (growth inhibition rate level) Amaranthus retroflexus (Amaranthus retroflexus [4]; 5g a.i./10a) | herbicidal efficacy (growth inhibition rate level) Amaranthus retroflexus (Amaranthus retroflexus [4]; 10g a.i./10a) | herbicidal efficacy (growth inhibition rate level) Chenopodium album (Chenopodium album [5]; 5g a.i./10a) | herbicidal efficacy (growth inhibition rate level) Chenopodium album (Chenopodium album [5]; 10g a.i./10a) | herbicidal efficacy (growth inhibition rate level) Digitaria ciliaris (Digitaria ciliaris [6]; 5g a.i./10a) | herbicidal efficacy (growth inhibition rate level) Digitaria ciliaris (Digitaria ciliaris [6]; 10g a.i./10a)
N#Cc1cnn(-c2nn3c(c2Cl)CCCC3)c1NCCCl [Control agent 4.92] | 1 (10% to less than 20%) | 2 (20% to less than 30%) | 0 (0 (exponent): 0% to less than 10% (growth inhibition rate)) | 1 (10% to less than 20%) | 2 (20% to less than 30%) | 4 (40% to less than 50%) | 0 (0 (exponent): 0% to less than 10% (growth inhibition rate)) | 1 (10% to less than 20%) | 3 (30% to less than 40%) | 4 (40% to less than 50%) | 4 (40% to less than 50%) | 5 (50% to less than 60%) | 2 (20% to less than 30%) | 3 (30% to less than 40%) | 4 (40% to less than 50%) | 5 (50% to less than 60%) | 3 (30% to less than 40%) | 6 (60% to less than 70%) | 4 (40% to less than 50%) | 5 (50% to less than 60%)
CN(C(=O)C(F)(F)F)c1c(C#N)cnn1-c1nn2c(c1Cl)CCCC2 [Control agent 4.237] | 1 (10% to less than 20%) | 4 (40% to less than 50%) | 2 (20% to less than 30%) | 3 (30% to less than 40%) | 2 (20% to less than 30%) | 4 (40% to less than 50%) | 1 (10% to less than 20%) | 2 (20% to less than 30%) | 5 (50% to less than 60%) | 5 (50% to less than 60%) | 4 (40% to less than 50%) | 4 (40% to less than 50%) | 4 (40% to less than 50%) | 5 (50% to less than 60%) | 4 (40% to less than 50%) | 6 (60% to less than 70%) | 4 (40% to less than 50%) | 5 (50% to less than 60%) | 5 (50% to less than 60%) | 6 (60% to less than 70%)
